According to US20090081154A1, “Attractant composition for yellowjackets” (priority 2006, published 2009):
“And” between values parts separate entries of the source, which are not always exact repeats. Identical values can stand only once.

Legend:
yellowjackets [1] = assay: Three ester trap trials taken together (totals and conclusions); assay type: in vivo, Vespula pensylvanica; conditions: for relative attractiveness of the esters, in words: heptyl butyrate, octyl butyrate and their combination compared; for Total numbers of yellowjackets caught for all trials: sum of Tables 1-3
Procedure: Several experiments were performed to determine the relative attractiveness of heptyl butyrate, octyl butyrate and a 1:1 mixture of the two esters. In an initial experiment, one trap each containing octyl butyrate, heptyl butyrate, or a 1:1 mixture of the two esters, was placed around the perimeter of the north lawn of the Lawrence Hall of Science, University of California, Berkeley. After approximately 1 month, the yellowjackets in each trap were collected and counted. […] The results are shown below in Table 1: A second experiment was set up at the Lawrence Hall of Science upper patio, placing 4 sets of the three treatments randomly around the patio, a total of 12 traps. One trap containing octyl butyrate was lost and not counted. After twenty days, the total numbers of yellowjackets caught for each of the treatments is shown in table 2 below: A third trial was performed in the same location using a total of 12 traps. There were 4 repetitions of each treatment presented. The total number of yellowjackets caught per each treatment is shown in table 3: Total numbers of yellowjackets caught for all trials are given below: The trial from Jul. 21-Aug. 10, 2005 cannot be assumed to be an anomaly.

yellowjackets [2] = assay: Third field trap trial, LHS upper patio, 12 traps; assay type: in vivo, Vespula pensylvanica; conditions: 8/11-9/7/05, LHS UP; for total YJ: 4 repetitions of each treatment
Procedure: A third trial was performed in the same location using a total of 12 traps. There were 4 repetitions of each treatment presented.

Vespula pensylvanica = assay: Initial field trap experiment: octyl butyrate, heptyl butyrate or 1:1 mixture, LHS north lawn; assay type: in vivo; conditions: one trap per composition, 6/15-7/21 (approximately 1 month), LHS NL
Procedure: Several experiments were performed to determine the relative attractiveness of heptyl butyrate, octyl butyrate and a 1:1 mixture of the two esters. In an initial experiment, one trap each containing octyl butyrate, heptyl butyrate, or a 1:1 mixture of the two esters, was placed around the perimeter of the north lawn of the Lawrence Hall of Science, University of California, Berkeley. After approximately 1 month, the yellowjackets in each trap were collected and counted. […]

yellowjackets [3] = assay: Second field trap experiment, LHS upper patio, 4 sets of three treatments; assay type: in vivo, Vespula pensylvanica; conditions: 7/21-8/10/05, twenty days, LHS UP, 4 traps per treatment (one octyl butyrate trap lost)
From the text: A second experiment was set up at the Lawrence Hall of Science upper patio, placing 4 sets of the three treatments randomly around the patio, a total of 12 traps. One trap containing octyl butyrate was lost and not counted.

yellowjackets [4] = assay: Field trap test octyl butyrate vs. OB + 1% methyl salicylate, LHS Back Plaza; assay type: in vivo, Vespula pensylvanica; conditions: 1% MSA
Procedure: In one experiment, octyl butyrate (OB) was compared with OB containing 1% methyl salicylate (MSA). Six traps were placed at the Lawrence Hall of Science Back Plaza on Jul. 21, 2005. Three of the traps were baited with octyl butyrate alone. The other three were baited with the mixture of 1% methyl salicylate in octyl butyrate. Each of the traps contained 8ml of attractant dispensed on a cotton pad, which was placed inside the trap. The traps were collected on Sep. 8, 2005, and the yellowjackets counted.

yellowjackets [5] = assay: Field trap test octyl butyrate vs. OB + 1% MSA + 1% t-2-H, LHS North Lawn; assay type: in vivo, Vespula pensylvanica; conditions: three traps per treatment, 8 ml attractant, 1% each MSA and t-2-H; listed as OB
Procedure: In a separate experiment, a mixture of octyl butyrate and the two kairomones methyl salicylate (MSA) and trans-2-hexenol (t-2-H), where the two kairomones were each present in 1% by weight quantities, was tested against octyl butyrate alone. Three repetitions of each treatment were tested in yellowjacket traps placed around the Lawrence Hall of Science North Lawn on Jul. 21, 2005. Each lure contained 8 ml of attractant. The traps were collected and the yellowjackets removed and counted on Aug. 11, 2005. […] A total of 40 yellowjackets were caught using the combination OB+MSA+t-2-H, whereas only 31 yellowjackets were caught in traps baited with OB alone.

yellowjackets [6] = assay: Field trap test octyl butyrate vs. OB + 1% trans-2-hexenol, Strawberry Baseball Diamonds; assay type: in vivo, Vespula pensylvanica; conditions: 8 ml attractant, 27 days; for # of YJ (single trap): per trap, t-2-H 1% by weight
Procedure: In another experiment conducted at the Strawberry Baseball Diamonds, octyl butyrate was compared to octyl butyrate+t-2-hexenol, where the trans-2-hexenol was present in 1% concentration by weight. […] For each treatment, 8 ml of attractant was used. The traps were collected and counted after 27 days. The total number of yellowjackets caught in the three traps with octyl butyrate alone is 113. A total of 170 yellowjackets were caught in the three traps baited with octyl butyrate +t-2-hexenol.

CCCCCCCOC(=O)CCC [heptyl butyrate]
relative attractiveness of the esters, in words (yellowjackets [1]): more effective in luring and capturing yellowjackets than octyl butyrate
Total numbers of yellowjackets caught for all trials (yellowjackets [1]): 625
Avg catch per trap (yellowjackets [2]): 61
total YJ (yellowjackets [2]): 242
# YJ caught (Vespula pensylvanica): 148
Total # YJ (yellowjackets [3]): 235

CCCCCCCCOC(=O)CCC [octyl butyrate]
relative attractiveness of the esters, in words (yellowjackets [1]): inferior attractant to heptyl butyrate
Total numbers of yellowjackets caught for all trials (yellowjackets [1]): 315
Avg catch per trap (yellowjackets [2]): 45
total YJ (yellowjackets [2]): 134
# YJ caught (Vespula pensylvanica): 36
Total # YJ (yellowjackets [3]): 145
# of YJ (single trap) (yellowjackets [4]; per trap, 8 ml attractant on cotton pad, LHS Back Plaza, collected Sep. 8, 2005): 0
Totals (YJ per treatment) (yellowjackets [4]; three traps per treatment, 8 ml attractant): no yellowjackets were caught
Totals (YJ per treatment) (yellowjackets [5]): 31 and 30
# of YJ (single trap) (yellowjackets [6]; listed as OB): 38 and 41
# of YJ (single trap) (yellowjackets [6]; listed as Octyl (OB)): 34
Total YJ per Treatment (yellowjackets [6]; three traps per treatment, t-2-H 1%): 113
